Entries after “also recorded” stand apart in the source; their conditions may differ. Read-outs that look alike come from different tables or passages of the source.
Experiments:
[1] = system: uninjected oocytes and oocytes injected with RIC-3 alone; type: cell-based, Xenopus laevis
[2] = system: homomeric α9 nAChRs; conditions: cited from earlier work
[3] = system: human α10 nAChR; type: cell-based, human (expressed in Xenopus laevis oocytes)
[4] = target: T1, [V13′T]α10 nAChRs (Homo sapiens, UniProt Q9GZZ6, V280T); assay: cell-based; type: cell-based, human (expressed in Xenopus laevis oocytes)
[5] = system: (α4)3(β2)2; conditions: cited from earlier work
[6] = system: [V13′T]α10 nAChR; type: cell-based, human (expressed in Xenopus laevis oocytes)
[7] = system: (α4)2(β2)3; conditions: cited from earlier work
[8] = system: homomeric α9 nAChRs; conditions: cited from earlier work; remark: listed apart in the source
[9] = target: T1, [V13′T]α10 nAChRs; type: cell-based, human (expressed in Xenopus laevis oocytes)
[10] = system: homomeric α10 nAChRs; conditions: cited from earlier work
[11] = system: α9α10 nAChRs; conditions: cited from earlier work
[12] = system: homomeric α7 nAChRs; conditions: cited from earlier work
[13] = system: human α10 nAChRs; type: cell-based, human (expressed in Xenopus laevis oocytes)
[14] = system: α9 homomers; conditions: cited from earlier work
[15] = system: muscle type nAChRs; conditions: cited from earlier work

T1 sequence (Q9GZZ6 25-450 V280T limits assumed): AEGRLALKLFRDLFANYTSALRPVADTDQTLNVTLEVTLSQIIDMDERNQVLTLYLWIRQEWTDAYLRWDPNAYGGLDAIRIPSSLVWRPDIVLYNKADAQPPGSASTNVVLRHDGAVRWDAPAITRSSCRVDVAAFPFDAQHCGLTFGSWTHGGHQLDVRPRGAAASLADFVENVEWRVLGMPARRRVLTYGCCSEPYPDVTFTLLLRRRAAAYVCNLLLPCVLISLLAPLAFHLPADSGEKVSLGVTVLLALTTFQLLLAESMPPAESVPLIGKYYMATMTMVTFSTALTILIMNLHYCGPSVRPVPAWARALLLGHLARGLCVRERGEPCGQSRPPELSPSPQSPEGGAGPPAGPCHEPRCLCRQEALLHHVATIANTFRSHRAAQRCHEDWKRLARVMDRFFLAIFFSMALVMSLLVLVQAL

Compound: CC(=O)OCC[N+](C)(C)C [ACh, Acetylcholine]
- ACh-induced current in uninjected oocytes ([1]; n = 10): did not produce currents; also recorded: No ACh-induced currents were observed
- ACh-induced current in oocytes injected with RIC-3 alone ([1]; n = 20): did not produce currents; also recorded: No ACh-induced currents were observed
- ACh-induced currents [2]: small currents
- ACh-induced current, average amplitude [3]: 17 nA
- mean ACh-induced response [3]: −7 ± 6 nA
- response to ACh, α10 + RIC-3 versus α10 only [3]: significantly greater than those observed in α10-only injected oocytes; also recorded: significantly larger responses
- range of ACh-induced response ([3]; n = 12): −2 to −24 nA
- ACh-induced currents versus those induced by choline or nicotine [4]: significantly larger
- Hill slope [4]: 0.82 (0.67–1.01)
- affinity for acetylcholine [5]: low
- effect of absence of Ca^2+ on ACh-evoked currents [6]: did not substantially reduce ACh-evoked currents
- mean ACh-induced response without actinomycin D [6]: −208 ± 227 nA
- range of ACh-induced response ([6]; n = 12): −117 to −1120 nA
- affinity for acetylcholine [7]: high
- ACh-induced currents [8]: small currents

Compound: CN1[C@@H]2CC[C@H]1C[C@@H](OC(=O)C(CO)c1ccccc1)C2 (stereo partly drawn) [atropine]
- ACh-evoked response, percent of baseline [9]: 230 ± 44%
- enhancement of ACh-evoked response [9]: 230 ± 44%
- onset and reversal of potentiation [9]: rapid onset and reversal
- potentiation of ACh-evoked currents (in words) [9]: rapid, significant potentiation

Compound: COc1cc2c(cc1OC)[C@@]13CCN4CC5=CCO[C@H]6CC(=O)N2[C@H]1[C@H]6[C@H]5C[C@H]43 [brucine]
- enabling of function/expression of homomeric α10 nAChRs [10]: can enable the function of homomeric α10 mammalian nAChRs

Compound: C[N+](C)(C)CCO [choline]
- EC50 [4]: 200 µM
- Hill slope [4]: 0.49 (0.41–0.60)
- agonist class [4]: partial agonists
- efficacy of choline relative to nicotine [4]: more efficacious than nicotine
- efficacy relative to ACh [4]: lower efficacy than ACh

Compound: CCN1C[C@]2(COC(=O)c3ccccc3N3C(=O)C[C@H](C)C3=O)CC[C@H](OC)[C@@]34[C@@H]5C[C@H]6[C@H](OC)[C@@H]5[C@](O)(C[C@@H]6OC)[C@@](O)([C@@H](OC)[C@H]23)[C@@H]14 [methyllycaconitine]
- enabling of function/expression of homomeric α10 nAChRs [10]: can enable the function of homomeric α10 mammalian nAChRs

Compound: CN1CCC[C@H]1c1cccnc1 [nicotine]
- EC50 [4]: 350 µM
- Hill slope [4]: 0.59 (0.49–0.69)
- agonist class [4]: partial agonist
- efficacy relative to ACh [4]: lower efficacy than ACh
- action of nicotine on wild-type α9α10 nAChRs [11]: antagonist

Compound: O=C1C[C@@H]2OCC=C3CN4CC[C@]56c7ccccc7N1[C@H]5[C@H]2[C@H]3C[C@H]46 [strychnine]
- block of homomeric α7 nAChRs by strychnine [12]: blocks
- effect of strychnine on α10 nAChR function, higher concentrations [13]: block α10 nAChR function
- effect of strychnine on α10 plus RIC-3 oocytes, lower concentrations [13]: further substantial increase in expression
- block of α9α10 nAChRs by strychnine [11]: blocks
- ACh-evoked response, percent of baseline [9]: 572 ± 131%
- effect of strychnine at low concentrations [9]: enhanced [V13′T]α10 responses to ACh
- effect of strychnine at the highest concentration [9]: inhibitory effect; also recorded: almost entirely inhibited
- effect of strychnine on [V13′T]α10 + RIC-3 responses [9]: further enhanced
- enhancement of ACh-evoked response [9]: 572 ± 131%
- maximum enhancement of ACh responses [9]: greater than 5 fold
- potentiation of ACh-evoked currents (in words) [9]: rapid, significant potentiation
- strychnine concentration of maximum potentiation [9]: 1 µM
- enabling of function/expression of homomeric α10 nAChRs [10]: enable the expression of human α10 nAChRs; also recorded: enable functional expression of wild-type α10 homomers in oocytes; also recorded: can enable the function of homomeric α10 mammalian nAChRs
- block of homomeric α9 nAChRs by strychnine [14]: blocks

Compound: dihydro-β-erythroidine
- effect on ACh-evoked response ([9]; 3 μM, 10 min, n = 5): no significant activity; also recorded: not significantly altered

Compound: α-bungarotoxin
- block of α7 homomers by α-bungarotoxin [12]: blocks
- antagonist sensitivity of α10 homomers [13]: blocked; also recorded: sensitive
- block of ACh-evoked current [13]: completely blocked; also recorded: sensitive; also recorded: inhibited
- block of α9α10 nAChRs by α-bungarotoxin [11]: sensitive; also recorded: blocks
- block of muscle type nAChRs by α-bungarotoxin [15]: blocks
- Hill slope [9]: −1.17
- IC50 [9]: 0.331 µM
- sensitivity of α9 to α-bungarotoxin [14]: sensitive

Reference: article PMC11850127 (The Journal of Biological Chemistry, 2025)
